Assay [1] concerns the target human EGFR (native sequence) (Homo sapiens, UniProt P00533). Nature of the assay: Kinase inhibitory activity against human EGFR (native sequence). The note with it: 10 pt curves, 3 μM top concentration, 10 μM ATP; read-out: IC50 for kinase inhibition, EGFR. It is filed as biochemical. The essentials: (§1)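 Compounds were titrated over ten points starting at 3 μM, each point in singlicate, and kinase activity was measured in the presence of 10 μM ATP.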

In assay [2] the target is EGFR L858R (Homo sapiens, UniProt P00533, L858R). Briefly: Kinase inhibitory activity against EGFR bearing the L858R mutation. To be noted: 10 pt curves, 3 μM top concentration, 10 μM ATP; read-out: IC50 for kinase inhibition, EGFR L858R. It is filed as biochemical. The essentials:
as §1

The test system of assay [3] is BaF3 cells expressing wildtype EGFR. Nature of the assay: Antiproliferative activity (MTT) against control BaF3 cells expressing wildtype EGFR. It is filed as cell-based. To be noted: Mus musculus, BAF3 parental cells. The essentials:
(§2)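 Growth inhibition of EGFR-mutant BaF3 cells was assessed with an MTT assay. A BaF3 line expressing wildtype EGFR served as comparator.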

In assay [4] the target is EGFR L858R/T790M (Homo sapiens, UniProt P00533, L858R/T790M). Nature of the assay: Kinase inhibitory activity against EGFR bearing the L858R/T790M double mutation. The format is biochemical. The note with it: 10 pt curves, 3 μM top concentration, 10 μM ATP; read-out: IC50 for kinase inhibition, EGFR L858R T790M. The essentials:
as §1

Assay [5] concerns the target T1, BaF3 cells expressing the target EGFR mutations (Homo sapiens, UniProt P00533, T790M, cells depend on it, form not given).
T1 construct: IC50, BAF3 EGFR DEL T790M PURO POOL; other: BAF3 EGFR DEL T790M PURO POOL cells, MTT; other: BAF3 EGFR DEL T790M PURO POOL cells; MTT
Nature of the assay: Antiproliferative activity (MTT) against BaF3 cells expressing the target EGFR mutations. The note with it: BAF3 EGFR DEL T790M PURO POOL cells, read-out: IC50, BAF3 EGFR DEL T790M PURO POOL. It is filed as cell-based. The essentials: as §2

In assay [6] the target is T2, BaF3 cells expressing the target EGFR mutations (Homo sapiens, UniProt P00533, T790M/L858R, cells depend on it).
T2 construct: IC50, BAF3 EGFR L858R-T790M PURO POOL; other: BAF3 EGFR L858R-T790M PURO POOL cells, MTT; IC50, BAF3 EGFR L858R-T790M PURO POOL; other: BAF3 EGFR L858R-T790M PURO POOL cells; MTT
The assay is described as above. The note with it: BAF3 EGFR L858R-T790M PURO POOL cells, read-out: IC50, BAF3 EGFR L858R-T790M PURO POOL. The format is cell-based. The essentials:
as §2

Chain of EGFR L858R/T790M (P00533 25-1210 T790M/L858R): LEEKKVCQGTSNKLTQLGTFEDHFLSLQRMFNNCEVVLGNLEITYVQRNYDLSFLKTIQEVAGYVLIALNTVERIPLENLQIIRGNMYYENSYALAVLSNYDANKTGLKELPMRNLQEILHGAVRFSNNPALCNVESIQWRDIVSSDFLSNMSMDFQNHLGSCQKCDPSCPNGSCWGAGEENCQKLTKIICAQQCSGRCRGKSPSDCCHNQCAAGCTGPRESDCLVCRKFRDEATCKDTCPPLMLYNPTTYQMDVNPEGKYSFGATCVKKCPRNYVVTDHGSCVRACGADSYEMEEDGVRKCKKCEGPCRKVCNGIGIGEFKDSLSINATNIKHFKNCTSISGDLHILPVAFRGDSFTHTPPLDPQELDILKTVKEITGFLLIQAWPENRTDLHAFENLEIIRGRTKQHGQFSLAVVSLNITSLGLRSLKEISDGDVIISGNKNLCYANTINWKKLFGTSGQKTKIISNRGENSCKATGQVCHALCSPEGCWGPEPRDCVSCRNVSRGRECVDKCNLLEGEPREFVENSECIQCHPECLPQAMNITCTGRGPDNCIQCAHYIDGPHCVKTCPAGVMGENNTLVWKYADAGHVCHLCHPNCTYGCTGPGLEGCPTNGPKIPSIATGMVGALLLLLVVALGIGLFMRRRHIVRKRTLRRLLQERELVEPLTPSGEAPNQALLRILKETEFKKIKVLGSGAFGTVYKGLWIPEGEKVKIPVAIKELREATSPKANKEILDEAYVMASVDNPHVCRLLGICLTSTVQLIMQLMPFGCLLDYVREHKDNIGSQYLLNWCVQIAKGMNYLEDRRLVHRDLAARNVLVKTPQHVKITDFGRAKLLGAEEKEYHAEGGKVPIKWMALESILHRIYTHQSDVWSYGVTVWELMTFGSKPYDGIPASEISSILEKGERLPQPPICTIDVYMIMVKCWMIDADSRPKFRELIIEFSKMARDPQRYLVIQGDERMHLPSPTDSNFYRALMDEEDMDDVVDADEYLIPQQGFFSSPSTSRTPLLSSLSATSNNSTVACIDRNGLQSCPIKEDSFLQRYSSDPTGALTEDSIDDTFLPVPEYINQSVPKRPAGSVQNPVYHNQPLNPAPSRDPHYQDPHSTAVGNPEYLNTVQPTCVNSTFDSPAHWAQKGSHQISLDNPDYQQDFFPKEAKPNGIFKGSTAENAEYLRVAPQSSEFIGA
T2 sequence (P00533 whole entry T790M/L858R): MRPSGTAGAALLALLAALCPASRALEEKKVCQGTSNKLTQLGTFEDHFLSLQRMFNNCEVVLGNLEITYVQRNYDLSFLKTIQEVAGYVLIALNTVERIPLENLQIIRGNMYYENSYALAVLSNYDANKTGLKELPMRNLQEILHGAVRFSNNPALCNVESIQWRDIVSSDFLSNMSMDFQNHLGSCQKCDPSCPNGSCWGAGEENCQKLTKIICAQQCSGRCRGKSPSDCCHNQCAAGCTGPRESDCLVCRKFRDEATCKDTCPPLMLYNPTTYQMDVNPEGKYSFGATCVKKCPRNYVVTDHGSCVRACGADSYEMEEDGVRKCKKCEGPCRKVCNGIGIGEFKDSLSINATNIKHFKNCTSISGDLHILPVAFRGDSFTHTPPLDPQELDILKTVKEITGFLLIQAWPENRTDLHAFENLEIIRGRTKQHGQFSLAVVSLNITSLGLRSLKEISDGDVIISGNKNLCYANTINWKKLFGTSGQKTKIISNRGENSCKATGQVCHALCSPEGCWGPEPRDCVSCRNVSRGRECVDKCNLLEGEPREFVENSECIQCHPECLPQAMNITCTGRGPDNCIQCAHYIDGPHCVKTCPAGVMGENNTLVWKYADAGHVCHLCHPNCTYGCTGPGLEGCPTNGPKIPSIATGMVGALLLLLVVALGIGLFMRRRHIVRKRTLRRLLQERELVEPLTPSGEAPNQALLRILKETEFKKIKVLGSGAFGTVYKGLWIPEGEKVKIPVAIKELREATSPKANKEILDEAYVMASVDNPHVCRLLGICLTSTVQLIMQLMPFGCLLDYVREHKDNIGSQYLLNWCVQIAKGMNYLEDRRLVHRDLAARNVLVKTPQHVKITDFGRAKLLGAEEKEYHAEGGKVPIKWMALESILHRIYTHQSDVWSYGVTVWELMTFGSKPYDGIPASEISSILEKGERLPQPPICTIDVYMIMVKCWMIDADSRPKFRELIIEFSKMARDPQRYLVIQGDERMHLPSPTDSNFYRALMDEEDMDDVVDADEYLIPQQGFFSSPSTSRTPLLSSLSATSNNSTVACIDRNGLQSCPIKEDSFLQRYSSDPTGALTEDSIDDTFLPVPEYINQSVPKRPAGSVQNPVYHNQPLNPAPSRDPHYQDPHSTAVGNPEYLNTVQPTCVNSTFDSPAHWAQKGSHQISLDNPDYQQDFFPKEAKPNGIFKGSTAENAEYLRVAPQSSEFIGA
Chain of EGFR L858R (P00533 25-1210 L858R): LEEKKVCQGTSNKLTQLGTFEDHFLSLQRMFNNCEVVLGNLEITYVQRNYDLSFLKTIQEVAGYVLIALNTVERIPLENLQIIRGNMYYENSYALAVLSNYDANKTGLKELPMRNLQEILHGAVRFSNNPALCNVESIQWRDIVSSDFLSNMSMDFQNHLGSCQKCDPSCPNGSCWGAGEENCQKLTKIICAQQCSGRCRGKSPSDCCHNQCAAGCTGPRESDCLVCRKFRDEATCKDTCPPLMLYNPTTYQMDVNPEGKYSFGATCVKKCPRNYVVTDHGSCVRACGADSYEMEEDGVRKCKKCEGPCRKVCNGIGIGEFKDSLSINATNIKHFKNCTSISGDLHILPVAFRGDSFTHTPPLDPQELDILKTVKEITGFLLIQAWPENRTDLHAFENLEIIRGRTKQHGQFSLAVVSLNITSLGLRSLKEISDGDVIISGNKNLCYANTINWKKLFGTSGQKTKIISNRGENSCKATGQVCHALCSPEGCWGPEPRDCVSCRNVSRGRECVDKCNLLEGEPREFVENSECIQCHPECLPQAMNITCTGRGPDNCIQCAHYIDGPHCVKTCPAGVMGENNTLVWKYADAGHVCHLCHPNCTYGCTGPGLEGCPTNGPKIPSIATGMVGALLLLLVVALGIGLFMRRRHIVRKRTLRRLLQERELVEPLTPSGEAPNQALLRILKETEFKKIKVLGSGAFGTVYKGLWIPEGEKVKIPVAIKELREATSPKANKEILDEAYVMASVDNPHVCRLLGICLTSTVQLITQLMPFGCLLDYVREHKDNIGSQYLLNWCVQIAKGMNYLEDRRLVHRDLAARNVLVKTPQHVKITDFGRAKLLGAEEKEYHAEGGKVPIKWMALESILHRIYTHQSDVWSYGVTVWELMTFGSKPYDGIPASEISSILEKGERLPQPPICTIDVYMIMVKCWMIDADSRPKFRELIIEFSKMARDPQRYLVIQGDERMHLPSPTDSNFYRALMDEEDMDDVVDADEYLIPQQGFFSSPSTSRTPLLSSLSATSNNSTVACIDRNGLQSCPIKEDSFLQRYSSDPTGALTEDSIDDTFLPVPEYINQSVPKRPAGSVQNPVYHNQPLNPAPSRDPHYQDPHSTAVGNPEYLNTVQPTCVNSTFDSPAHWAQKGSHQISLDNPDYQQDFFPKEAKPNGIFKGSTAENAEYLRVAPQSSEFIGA
T1 sequence (P00533 with tags, fused parts or gaps DEL746-750/T790M, form open): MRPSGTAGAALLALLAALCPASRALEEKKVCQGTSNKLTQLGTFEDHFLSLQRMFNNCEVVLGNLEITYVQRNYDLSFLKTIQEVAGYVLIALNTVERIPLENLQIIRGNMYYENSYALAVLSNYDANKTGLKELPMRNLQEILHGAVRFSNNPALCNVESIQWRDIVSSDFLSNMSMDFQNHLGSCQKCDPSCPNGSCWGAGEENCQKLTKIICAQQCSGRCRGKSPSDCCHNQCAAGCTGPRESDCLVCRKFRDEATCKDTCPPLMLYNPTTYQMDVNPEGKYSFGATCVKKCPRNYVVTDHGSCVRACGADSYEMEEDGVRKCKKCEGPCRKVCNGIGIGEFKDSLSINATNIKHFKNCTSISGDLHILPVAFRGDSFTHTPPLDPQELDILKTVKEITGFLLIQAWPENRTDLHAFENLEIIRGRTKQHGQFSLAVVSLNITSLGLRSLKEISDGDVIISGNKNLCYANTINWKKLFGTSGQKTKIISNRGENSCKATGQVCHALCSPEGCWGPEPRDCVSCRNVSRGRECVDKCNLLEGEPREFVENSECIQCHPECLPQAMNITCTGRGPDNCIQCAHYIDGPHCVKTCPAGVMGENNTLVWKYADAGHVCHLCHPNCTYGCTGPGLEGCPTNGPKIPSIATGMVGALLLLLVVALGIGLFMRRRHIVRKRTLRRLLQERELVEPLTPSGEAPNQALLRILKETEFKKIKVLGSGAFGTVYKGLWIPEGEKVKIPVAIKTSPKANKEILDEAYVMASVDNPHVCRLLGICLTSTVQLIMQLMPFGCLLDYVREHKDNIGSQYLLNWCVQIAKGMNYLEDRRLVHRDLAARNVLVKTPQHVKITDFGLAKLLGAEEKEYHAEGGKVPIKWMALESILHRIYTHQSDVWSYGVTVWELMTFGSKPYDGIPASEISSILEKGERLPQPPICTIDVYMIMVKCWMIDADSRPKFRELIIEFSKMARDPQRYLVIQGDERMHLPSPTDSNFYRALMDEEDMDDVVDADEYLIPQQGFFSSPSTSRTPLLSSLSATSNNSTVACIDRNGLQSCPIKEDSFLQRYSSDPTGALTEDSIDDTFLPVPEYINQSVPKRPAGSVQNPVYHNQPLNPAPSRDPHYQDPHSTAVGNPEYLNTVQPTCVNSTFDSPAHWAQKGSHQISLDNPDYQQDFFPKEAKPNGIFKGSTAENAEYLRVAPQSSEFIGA

With `CC#CC(=O)Nc1cc(Nc2ncc(Cl)c(Nc3ccccc3P(C)(C)=O)n2)c(OC)cc1OC1COC1` [Example 103, N-(5-((5-chloro-4-((2-(dimethylphosphoryl)phenyl)amino)pyrimidin-2-yl)amino)-4-methoxy-2-(oxetan-3-yloxy)phenyl)but-2-ynamide], the IC50 in assay [1] was at least 250 nM; in assay [2], below 50 nM; in assay [3] it was at least 250 nM; in assay [4], 50 to 100 nM. Also, the values for the GI50 in assay [5] and in assay [6] were below 50 nM and 50 to 100 nM, respectively.
For `COc1cc(N2CCOCC2)c(NC(=O)C#CCN(C)C)cc1Nc1ncc(Cl)c(Nc2ccccc2P(C)(C)=O)n1` [Example 104, N-(5-((5-chloro-4-((2-(dimethylphosphoryl)phenyl)amino)pyrimidin-2-yl)amino)-4-methoxy-2-morpholinophenyl)-4-(dimethylamino)but-2-ynamide], the IC50 was below 50 nM in assay [1], below 50 nM in assay [2], at least 250 nM in assay [3] and below 50 nM in assay [4]. Besides, the GI50 in assay [5] and in assay [6] was below 50 nM in each case.
For the molecule `COCC#CC(=O)Nc1cc(Nc2ncc(Cl)c(Nc3ccccc3P(C)(C)=O)n2)c(OC)cc1N1CCOCC1` [Example 105, N-(5-((5-chloro-4-((2-(dimethylphosphoryl)phenyl)amino)pyrimidin-2-yl)amino)-4-methoxy-2-morpholinophenyl)-4-methoxybut-2-ynamide], the IC50 in assay [1] was below 50 nM; in assay [2] it was below 50 nM; in assay [3], at least 250 nM; in assay [4] it was below 50 nM. Besides, the GI50 in assay [5] and in assay [6] was below 50 nM in each case.
With `CC#CC(=O)Nc1cc(Nc2ncc(Cl)c(Nc3ccccc3P(C)(C)=O)n2)c(OC)cc1N1CCC(N2CCN(C)CC2)CC1` [Example 106, N-(5-((5-chloro-4-((2-(dimethylphosphoryl)phenyl)amino)pyrimidin-2-yl)amino)-4-methoxy-2-(4-(4-methylpiperazin-1-yl)piperidin-1-yl)phenyl)but-2-ynamide], the IC50 in assay [1] is 50 to 100 nM; in assay [2], below 50 nM; in assay [3], at least 250 nM; in assay [4] it was below 50 nM. Further, the GI50 in assay [5] and in assay [6] was below 50 nM in each case.
For `C=CC(=O)Nc1ccc(Nc2ncc(Cl)c(Nc3cccc(OCCN4CCCCC4)c3P(C)(C)=O)n2)c(OC)c1` [Example 107, N-(4-((5-chloro-4-((2-(dimethylphosphoryl)-3-(2-(piperidin-1-yl)ethoxy)phenyl)amino)pyrimidin-2-yl)amino)-3-methoxyphenyl)acrylamide], the IC50 in assay [1] is 101 to 250 nM; in assay [2], below 50 nM; in assay [3], at least 250 nM; in assay [4], below 50 nM. The GI50 in assay [5] is below 50 nM; in assay [6], 101 to 250 nM.
As to `C=CC(=O)Nc1ccc(OC)c(Nc2ncc(Cl)c(Nc3ccc(OCCN4CCCCC4)cc3P(C)(C)=O)n2)c1` [Example 108, N-(3-((5-chloro-4-((2-(dimethylphosphoryl)-4-(2-(piperidin-1-yl)ethoxy)phenyl)amino)pyrimidin-2-yl)amino)-4-methoxyphenyl)acrylamide], the IC50 in assay [1] was below 50 nM; in assay [2], below 50 nM; in assay [3], at least 250 nM; in assay [4], below 50 nM. Also, the GI50 in assay [5] and in assay [6] was below 50 nM in each case.
Take `CNC(=O)/C=C/C(=O)Nc1ccc(OC)c(Nc2ncc(Cl)c(Nc3ccccc3P(C)(C)=O)n2)c1` [Example 109, N1-(3-((5-chloro-4-((2-(dimethylphosphoryl)phenyl)amino)pyrimidin-2-yl)amino)-4-methoxyphenyl)-N4-methylfumaramide]: the IC50 is at least 250 nM in assay [1], below 50 nM in assay [2], at least 250 nM in assay [3] and below 50 nM in assay [4]. For the same molecule, the figures for the GI50 in assay [5] and in assay [6] were 50 to 100 nM and 101 to 250 nM, respectively.
`CNC(=O)/C=C\C(=O)Nc1ccc(OC)c(Nc2ncc(Cl)c(Nc3ccccc3P(C)(C)=O)n2)c1` [Example 110, N1-(3-((5-chloro-4-((2-(dimethylphosphoryl)phenyl)amino)pyrimidin-2-yl)amino)-4-methoxyphenyl)-N4-methylmaleamide]: the IC50 in assay [1] was at least 250 nM; in assay [2] it was below 50 nM; in assay [3], at least 250 nM; in assay [4] it was below 50 nM. Moreover, the GI50 in assay [5] is below 50 nM; in assay [6], 101 to 250 nM.
Regarding `COCC#CC(=O)Nc1cc(Nc2ncc(Cl)c(Nc3ccccc3P(C)(C)=O)n2)c(OC)cc1N1CCC(N(C)C)C1` (stereo not drawn) [Example 111, N-(5-((5-chloro-4-((2-(dimethylphosphoryl)phenyl)amino)pyrimidin-2-yl)amino)-2-(3-(dimethylamino)pyrrolidin-1-yl)-4-methoxyphenyl)-4-methoxybut-2-ynamide], the IC50 was below 50 nM in assay [1], below 50 nM in assay [2], at least 250 nM in assay [3] and below 50 nM in assay [4]. In addition, the GI50 in assay [5] and in assay [6] was below 50 nM throughout.
`CC#CC(=O)Nc1cc(Nc2ncc(Cl)c(Nc3ccccc3P(C)(C)=O)n2)c(OC)cc1N1CCC(N(C)C)C1` (stereo not drawn) [Example 112, N-(5-((5-chloro-4-((2-(dimethylphosphoryl)phenyl)amino)pyrimidin-2-yl)amino)-2-(3-(dimethylamino)pyrrolidin-1-yl)-4-methoxyphenyl)but-2-ynamide]: the IC50 in assay [1] is below 50 nM; in assay [2], below 50 nM; in assay [3], at least 250 nM; in assay [4] it was below 50 nM. Besides, the GI50 was below 50 nM in assay [5] and 50 to 100 nM in assay [6].
For the molecule `COc1cc(N2CCOCC2)c(NC(=O)C#CCCN(C)C)cc1Nc1ncc(Cl)c(Nc2ccccc2P(C)(C)=O)n1` [Example 114, N-(5-((5-chloro-4-((2-(dimethylphosphoryl)phenyl)amino)pyrimidin-2-yl)amino)-4-methoxy-2-morpholinophenyl)-5-(dimethylamino)pent-2-ynamide], the IC50 in assay [1] is below 50 nM; in assay [2], below 50 nM; in assay [3] it was at least 250 nM; in assay [4], below 50 nM. Moreover, the GI50 in assay [5] and in assay [6] was below 50 nM in each case.
Turning to `COCCC#CC(=O)Nc1cc(Nc2ncc(Cl)c(Nc3ccccc3P(C)(C)=O)n2)c(OC)cc1N1CCOCC1` [Example 115, N-(5-((5-chloro-4-((2-(dimethylphosphoryl)phenyl)amino)pyrimidin-2-yl)amino)-4-methoxy-2-morpholinophenyl)-5-methoxypent-2-ynamide], the half-inhibitory concentration (IC50) was below 50 nM in assay [1], below 50 nM in assay [2], at least 250 nM in assay [3] and below 50 nM in assay [4]. The GI50 in assay [5] and in assay [6] was below 50 nM each time.
On to `C=CC(=O)Nc1cc(Nc2ncc(Cl)c(Nc3ccccc3P(C)(C)=O)n2)c(OC)cc1C#CC(C)(C)N1CCCC1` [Example 116, N-(5-((5-chloro-4-((2-(dimethylphosphoryl)phenyl)amino)pyrimidin-2-yl)amino)-4-methoxy-2-(3-methyl-3-(pyrrolidin-1-yl)but-1-yn-1-yl)phenyl)acrylamide], for which the IC50 was 50 to 100 nM in assay [1], below 50 nM in assay [2], at least 250 nM in assay [3] and below 50 nM in assay [4]. The GI50 in assay [5] and in assay [6] was below 50 nM in each case.
As for `C=CC(=O)Nc1ccc(OCCN(C)C)c(Nc2ncc(Cl)c(Nc3ccccc3P(C)(C)=O)n2)c1` [Example 117, N-(3-((5-chloro-4-((2-(dimethylphosphoryl)phenyl)amino)pyrimidin-2-yl)amino)-4-(2-(dimethylamino)ethoxy)phenyl)acrylamide], the IC50 in assay [1], in assay [2], in assay [3] and in assay [4] was at least 250 nM throughout. Also, the GI50 in assay [5] and in assay [6] was at least 250 nM in each case.
As to `COc1cc(N2CCOCC2)c(NC(=O)C#CCCN2CCN(C)CC2)cc1Nc1ncc(Cl)c(Nc2ccccc2P(C)(C)=O)n1` [Example 118, N-(5-((5-chloro-4-((2-(dimethylphosphoryl)phenyl)amino)pyrimidin-2-yl)amino)-4-methoxy-2-morpholinophenyl)-5-(4-methylpiperazin-1-yl)pent-2-ynamide], the concentration for half-maximal inhibition (IC50) in assay [1] was below 50 nM; in assay [2], below 50 nM; in assay [3] it was at least 250 nM; in assay [4] it was below 50 nM. Besides, the GI50 in assay [5] and in assay [6] was below 50 nM throughout.

For the origin of these results see patent US9834571B2, “Compounds for inhibiting cell proliferation in EGFR-driven cancers” (ARIAD Pharmaceuticals, Inc., priority 2012, dated 2017).
